# Measured values as given in PubChem BioAssay (NCI).
#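 Compound exposure: 48 hours, 5 concentrations, 96-well plates. At the GI50, growth is halved. The concentration for full growth arrest is given as TGI.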
# Assays:
# Assay in all cases: inhibition of tumour cell growth, NCI panel, 48 h
# [1] = system: SK-MEL-28 melanoma
# [2] = system: SK-OV-3 ovarian
# [3] = system: COLO 205 colon
# [4] = system: U251 CNS
# [5] = system: OVCAR-4 ovarian
# [6] = system: MOLT-4 leukemia
# [7] = system: CAKI-1 renal
# [8] = system: TK-10 renal
# [9] = system: RXF 393 renal
# [10] = system: EKVX NSCLC
# [11] = system: SK-MEL-2 melanoma
# [12] = system: IGROV1 ovarian
# [13] = system: M14 melanoma
# [14] = system: KM12 colon
# [15] = system: UACC-257 melanoma
# [16] = system: SR leukemia
# [17] = system: OVCAR-8 ovarian
# [18] = system: A549 NSCLC
# [19] = system: SN12C renal
# [20] = system: UO-31 renal
# [21] = system: SK-MEL-5 melanoma
# [22] = system: DU-145 prostate
# [23] = system: OVCAR-5 ovarian
# [24] = system: MDA-MB-435
# [25] = system: HCT-15 colon
# [26] = system: RPMI-8226 leukemia
# [27] = system: PC-3 prostate
# [28] = system: CCRF-CEM leukemia
# [29] = system: LOX IMVI melanoma
# [30] = system: NCI-H522 lung
# [31] = system: NCI-H460 lung
# [32] = system: HT29 colon
# [33] = system: MCF7 breast
# [34] = system: NCI/ADR-RES ovarian
# [35] = system: HL-60(TB) leukemia
# [36] = system: UACC-62 melanoma
# [37] = system: SNB-75 CNS
# [38] = system: K-562 leukemia
# [39] = system: SF-295 CNS
# [40] = system: HCT-116 colon
# [41] = system: SF-539 CNS
# [42] = system: OVCAR-3 ovarian
# [43] = system: SW-620 colon
# [44] = system: NCI-H23 lung
# [45] = system: HS 578T breast
# [46] = system: T-47D breast
# [47] = system: NCI-H226 lung
# [48] = system: SNB-19 CNS
# [49] = system: HOP-62 NSCLC
# [50] = system: 786-0 renal
# [51] = system: ACHN renal
# [52] = system: MDA-MB-231 breast
# [53] = system: MALME-3M melanoma
# [54] = system: SF-268 CNS
# [55] = system: A498 renal
# [56] = system: HCC-2998 colon
# [57] = system: BT-549 breast
compound,measurement,setting,value
C/C(=N\O)c1ccc2ccc3ccccc3c2c1,TGI,[1],> 100 µM
same,TGI,[2],> 100 µM
same,TGI,[3],76.6 µM
same,TGI,[4],> 100 µM
same,TGI,[5],66.5 µM
same,TGI,[6],52.9 µM
same,TGI,[7],> 100 µM
same,TGI,[8],> 100 µM
same,TGI,[9],> 100 µM
same,TGI,[10],> 100 µM
same,TGI,[11],> 100 µM
same,TGI,[12],> 100 µM
same,TGI,[13],> 100 µM
same,TGI,[14],45 µM
same,TGI,[15],53.4 µM
same,TGI,[16],48.7 µM
same,TGI,[17],61.4 µM
same,TGI,[18],79.8 µM
same,TGI,[19],> 100 µM
same,TGI,[20],> 100 µM
same,TGI,[21],37 µM
same,TGI,[22],> 100 µM
same,TGI,[23],> 100 µM
same,TGI,[24],46.9 µM
same,TGI,[25],> 100 µM
same,TGI,[26],> 100 µM
same,TGI,[27],> 100 µM
same,TGI,[28],> 100 µM
same,TGI,[29],60.6 µM
same,TGI,[30],72.7 µM
same,TGI,[31],> 100 µM
same,TGI,[32],> 100 µM
same,TGI,[33],> 100 µM
same,TGI,[34],85.3 µM
same,TGI,[35],66.6 µM
same,TGI,[36],45.2 µM
same,TGI,[37],> 100 µM
same,TGI,[38],93 µM
same,TGI,[39],86.9 µM
same,TGI,[40],> 100 µM
same,TGI,[41],38.8 µM
same,TGI,[42],90.9 µM
same,TGI,[43],> 100 µM
same,TGI,[44],> 100 µM
same,TGI,[45],80.6 µM
same,TGI,[46],> 100 µM
same,TGI,[47],85.6 µM
same,TGI,[48],> 100 µM
same,TGI,[49],> 100 µM
same,TGI,[50],> 100 µM
same,TGI,[51],> 100 µM
same,TGI,[52],> 100 µM
same,TGI,[53],50.5 µM
same,TGI,[54],> 100 µM
CC(C)(C)c1cc(C(=O)Nc2ccccc2C(=O)NCCN)cc(C(C)(C)C)c1,GI50,[1],1.91 µM
same,TGI,[1],3.64 µM
same,GI50,[2],1.9 µM
same,TGI,[2],3.69 µM
same,GI50,[3],1.81 µM
same,TGI,[3],3.41 µM
same,GI50,[4],1.89 µM
same,TGI,[4],3.42 µM
same,GI50,[5],1.89 µM
same,TGI,[5],3.82 µM
same,GI50,[6],2.2 µM
same,TGI,[6],4.86 µM
same,GI50,[7],2.21 µM
same,TGI,[7],5.56 µM
same,GI50,[8],1.68 µM
same,TGI,[8],3.12 µM
same,GI50,[9],2.01 µM
same,TGI,[9],3.58 µM
same,GI50,[10],1.76 µM
same,TGI,[10],3.96 µM
same,GI50,[11],1.94 µM
same,TGI,[11],3.7 µM
same,GI50,[13],1.91 µM
same,TGI,[13],3.64 µM
same,GI50,[14],1.79 µM
same,TGI,[14],3.4 µM
same,GI50,[15],1.9 µM
same,TGI,[15],3.93 µM
same,GI50,[16],1.94 µM
same,TGI,[16],4.56 µM
same,GI50,[17],2.08 µM
same,TGI,[17],4.2 µM
same,GI50,[18],2.11 µM
same,TGI,[18],4.2 µM
same,GI50,[19],1.97 µM
same,TGI,[19],3.97 µM
same,GI50,[20],1.67 µM
same,TGI,[20],3.17 µM
same,GI50,[21],1.82 µM
same,TGI,[21],3.27 µM
same,GI50,[22],1.84 µM
same,TGI,[22],3.4 µM
same,GI50,[23],1.78 µM
same,TGI,[23],3.81 µM
same,GI50,[24],1.72 µM
same,TGI,[24],3.24 µM
same,GI50,[25],1.89 µM
same,TGI,[25],3.45 µM
same,GI50,[27],1.79 µM
same,TGI,[27],3.5 µM
same,GI50,[28],2.5 µM
same,TGI,[28],6.36 µM
same,GI50,[29],1.53 µM
same,TGI,[29],2.98 µM
same,GI50,[30],1.85 µM
same,TGI,[30],3.82 µM
same,GI50,[31],1.94 µM
same,TGI,[31],3.67 µM
same,GI50,[32],1.84 µM
same,TGI,[32],3.59 µM
same,GI50,[33],1.76 µM
same,TGI,[33],3.54 µM
same,GI50,[34],1.93 µM
same,TGI,[34],3.89 µM
same,GI50,[35],2.15 µM
same,TGI,[35],4.46 µM
same,GI50,[55],2.38 µM
same,TGI,[55],6.44 µM
same,GI50,[56],1.83 µM
same,TGI,[56],3.4 µM
same,GI50,[36],1.83 µM
same,TGI,[36],3.44 µM
same,GI50,[37],1.68 µM
same,TGI,[37],5.08 µM
same,GI50,[38],2.23 µM
same,TGI,[38],5.33 µM
same,GI50,[39],1.88 µM
same,TGI,[39],3.59 µM
same,GI50,[40],1.8 µM
same,TGI,[40],3.25 µM
same,GI50,[41],1.89 µM
same,TGI,[41],3.5 µM
same,GI50,[42],1.89 µM
same,TGI,[42],3.46 µM
same,GI50,[43],1.87 µM
same,TGI,[43],3.87 µM
same,GI50,[44],1.94 µM
same,TGI,[44],3.89 µM
same,GI50,[45],2.07 µM
same,TGI,[45],4.63 µM
same,GI50,[57],2.33 µM
same,TGI,[57],5.84 µM
same,GI50,[46],1.76 µM
same,TGI,[46],3.51 µM
same,GI50,[47],1.96 µM
same,TGI,[47],3.74 µM
same,GI50,[48],1.93 µM
same,TGI,[48],3.75 µM
same,GI50,[49],1.67 µM
same,TGI,[49],3.21 µM
same,GI50,[50],1.75 µM
same,TGI,[50],3.51 µM
same,GI50,[51],1.84 µM
same,TGI,[51],3.46 µM
same,GI50,[53],1.93 µM
same,TGI,[53],3.64 µM
same,GI50,[54],1.86 µM
same,TGI,[54],3.62 µM
